Earlier results on 1 molecule are cited in US7993683B2, “Compositions for the treatment of chronic degenerative inflammatory conditions” (Indena S.p.A., priority 2006, dated 2011).

Data set [1] concerns pro-inflammatory cytokines.
Data set [2] has as its system TNF-induced enhancement of endothelial monocyte adesion. Conditions: added to endothelial cell culture together with tumour necrosis factor (TNF).

For `C=C1CC[C@@H]2[C@](C)(CO)[C@H](O)CC[C@@]2(C)[C@@H]1C/C=C1/C(=O)OC[C@H]1O` [andrographolide], the “synthesis of pro-inflammatory cytokines” value in data set [1] was “inhibits”. In addition, the “TNF-induced enhancement of endothelial monocyte adesion” value in data set [2] is “concentration depended reduction”.
